Results taken from publication PMC4980831 (Arzneimittel-Forschung, 2009).

Experiments:
PDE5 = PDE5 (Homo sapiens, UniProt O76074); test: IMAP fluorescence polarization PDE assay; format: biochemical
PDE11 = PDE11 (Homo sapiens, UniProt Q9HCR9); test: IMAP fluorescence polarization PDE assay; format: biochemical
PDE11, sequence (Q9HCR9 whole entry): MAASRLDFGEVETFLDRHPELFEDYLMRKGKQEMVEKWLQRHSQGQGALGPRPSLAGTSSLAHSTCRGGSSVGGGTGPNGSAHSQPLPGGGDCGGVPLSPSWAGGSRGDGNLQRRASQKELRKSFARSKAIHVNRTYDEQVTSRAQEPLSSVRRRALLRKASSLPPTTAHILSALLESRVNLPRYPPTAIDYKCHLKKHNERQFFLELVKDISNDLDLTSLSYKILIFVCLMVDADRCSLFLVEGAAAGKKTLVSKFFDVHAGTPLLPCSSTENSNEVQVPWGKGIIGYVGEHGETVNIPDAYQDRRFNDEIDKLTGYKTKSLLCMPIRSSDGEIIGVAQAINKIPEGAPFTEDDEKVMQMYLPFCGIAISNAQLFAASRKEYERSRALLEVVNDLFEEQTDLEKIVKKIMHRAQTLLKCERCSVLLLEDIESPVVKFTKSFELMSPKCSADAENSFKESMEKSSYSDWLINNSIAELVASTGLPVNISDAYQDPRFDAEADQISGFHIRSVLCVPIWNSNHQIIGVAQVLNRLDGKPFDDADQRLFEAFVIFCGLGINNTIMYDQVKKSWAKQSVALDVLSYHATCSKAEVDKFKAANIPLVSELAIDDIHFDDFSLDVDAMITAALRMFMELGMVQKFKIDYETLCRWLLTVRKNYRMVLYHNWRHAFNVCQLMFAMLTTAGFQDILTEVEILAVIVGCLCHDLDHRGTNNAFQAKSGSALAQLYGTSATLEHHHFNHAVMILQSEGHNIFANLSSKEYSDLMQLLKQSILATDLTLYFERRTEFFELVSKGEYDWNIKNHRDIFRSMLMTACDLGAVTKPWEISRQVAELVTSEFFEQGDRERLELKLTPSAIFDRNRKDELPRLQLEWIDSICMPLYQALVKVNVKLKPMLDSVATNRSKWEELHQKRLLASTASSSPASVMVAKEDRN

Row | Structure (SMILES) | IC50 (PDE5) | IC50 (PDE11)
1 | CC1=C(CC(=O)O)c2cc(F)ccc2/C1=C\c1ccc(S(C)(=O)=O)cc1 [Exisulind, reference compound] | 295 ± 1.11 µM | > 300 µM
2 | COC(=O)[C@H]1Cc2c([nH]c3ccccc23)[C@@H](c2cc(OC)ccc2OC)N1 [I, Methyl (1R,3R)-1-(2,5-dimethoxyphenyl)-2,3,4,9-tetrahydro-1H-β-carboline-3-carboxylate] | 3.9 ± 1.09 µM | > 100 µM
3 | COC(=O)[C@H]1Cc2c([nH]c3ccccc23)[C@H](c2cc(OC)ccc2OC)N1 [II, Methyl (1S,3R)-1-(2,5-dimethoxyphenyl)-2,3,4,9-tetrahydro-1H-β-carboline-3-carboxylate] | > 100 µM | > 100 µM
4 | COC(=O)[C@@H]1Cc2c([nH]c3ccccc23)[C@H](c2cc(OC)ccc2OC)N1 [III, Methyl (1S,3S)-1-(2,5-dimethoxyphenyl)-2,3,4,9-tetrahydro-1H-β-carboline-3-carboxylate] | 14.3 ± 1.09 µM | > 100 µM
5 | COC(=O)[C@@H]1Cc2c([nH]c3ccccc23)[C@@H](c2cc(OC)ccc2OC)N1 [IV, Methyl (1R,3S)-1-(2,5-dimethoxyphenyl)-2,3,4,9-tetrahydro-1H-β-carboline-3-carboxylate] | 17.4 ± 1.09 µM | > 100 µM
6 | CCN1C(=O)[C@@H]2Cc3c([nH]c4ccccc34)[C@@H](c3cc(OC)ccc3OC)N2C1=S [IX, (5R,11aS)-2-ethyl-1-oxo-5-(2,5-dimethoxyphe-nyl)-5,6,11,11a-tetrahydro-1H-imidazo[1′,5′:1,6] pyrido[3,4-b]indole-3 (2H)-thione] | 78.6 ± 1.14 µM | > 100 µM
7 | CCN1C(=O)[C@H]2Cc3c([nH]c4ccccc34)[C@@H](c3cc(OC)ccc3OC)N2C1=O [V, (5R,11aR)-2-Ethyl-5-(2,5-dimethoxyphenyl)-5,6,11,11a-tetrahydro-1H-imidazo[1′,5′:1,6]pyrido [3,4-b]indole-1,3(2H)-dione] | 5 ± 1.14 µM | > 100 µM
8 | CCN1C(=O)[C@H]2Cc3c([nH]c4ccccc34)[C@H](c3cc(OC)ccc3OC)N2C1=O [VI, (5S,11aR)-2-Ethyl-5-(2,5-dimethoxyphenyl)-5,6,11,11^a-tetrahydro-1H-imidazo[1′,5′:1,6]pyrido [3,4-b]indole-1,3(2H)-dione] | > 100 µM | > 100 µM
9 | CCN1C(=O)[C@@H]2Cc3c([nH]c4ccccc34)[C@H](c3cc(OC)ccc3OC)N2C1=O [VII, (5S,11aS)-2-Ethyl-5-(2,5-dimethoxyphenyl)-5,6,11,11a-tetrahydro-1H-imidazo[1′,5′:1,6]pyrido [3,4-b]indole-1,3(2H)-dione] | > 100 µM | > 100 µM
10 | CCN1C(=O)[C@@H]2Cc3c([nH]c4ccccc34)[C@@H](c3cc(OC)ccc3OC)N2C1=O [VIII, (5R,11aS)-2-Ethyl-5-(2,5-dimethoxyphenyl)-5,6,11,11a-tetrahydro-1H-imidazo[1′,5′:1,6]pyrido [3,4-b]indole-1,3(2H)-dione] | 87.4 ± 1.1 µM | > 100 µM
11 | CCN1C(=O)[C@H]2Cc3c([nH]c4ccccc34)[C@H](c3cc(OC)ccc3OC)N2C1=S [X, (5S,11aR)-2-ethyl-1-oxo-5-(2,5-dimethoxy-phenyl)-5,6,11,11a-tetrahydro-1H-imidazo [1′,5′:1,6]pyrido[3,4-b]indole-3 (2H)-thione] | > 100 µM | > 100 µM
